Measurements as given in US6936719B2, “Biaryl compounds as serine protease inhibitors” (BioCryst Pharmaceuticals, Inc., priority 2001, dated 2005).
pIC50: −log10 of the molar value.

What was measured:
Type in all cases: biochemical
human pancreatic trypsin = experiment: In vitro enzymatic assay for human trypsin (L-BAPNA, OD405)
Method: In Vitro Assay for Human Trypsin
This enzymatic assay was employed to evaluate the ability of the test compounds to inhibit human pancreatic trypsin. IC50 of the test compounds was determined by using KC4A data reduction software (Bio-Tek Instruments) to interpolate percent inhibition from observed Vmax values.
Trypsin assay reactions were performed in a 200 μL mixture containing human pancreatic trypsin at 1 μg/mL in an assay buffer containing 200 mM triethanolamine (TEA), 10 mM calcium chloride, 10% DMSO, pH 7.8. Test compounds dissolved in DMSO were added to trypsin enzyme reactions at varied concentrations, followed by the addition of substrate Nα-Benzoyl-L-Arginine p-Nitroanilide (L-BAPNA) at a final concentration of (0.25 mg/mL). Reactions were incubated for 5 minutes at room temperature prior to measuring the change in OD405 nm for 10 minutes at 21 second intervals with a Powerwave x (Bio-Tek Instruments) microplate reader.

human thrombin = human thrombin (Homo sapiens, UniProt P00734); experiment: In vitro colorimetric assay for human thrombin (Nα-Benzoyl-Phe-Val-Arg-p-Nitroanilide, OD405)
Method: In Vitro Assay for Human Thrombin
This colorimetric assay was used to assess the ability of the test compounds to inhibit the human thrombin enzyme. IC50 of the test compounds was determined by using KC4A data reduction software (Bio-Tek Instruments) to interpolate percent inhibition from observed Vmax values.
Thrombin assay reactions were performed in a 200 μL mixture containing human thrombin at (1 U/mL) in an assay buffer containing 100 mM HEPES, 10 mM calcium chloride, and 10% DMSO, pH 7.5. Test compounds dissolved in DMSO were added to thrombin enzyme reactions at varied concentrations, followed by the addition of substrate Nα-Benzoyl-Phe-Val-Arg-p-Nitroanilide at a final concentration of 1 mM. Reactions were incubated for 5 minutes at room temperature prior to measuring the change in OD405 nm for 10 minutes at 21 second intervals with a Powerwave x (Bio-Tek Instruments) microplate reader.

TF/FVIIa = TF/FVIIa (Homo sapiens, UniProt P08709); experiment: In vitro amidolytic assay for inhibition of TF/FVIIa (Spectrozyme-FVIIa, pNA absorbance at OD405)
Method: In Vitro Assay for Inhibition of TF/FVIIa
To assess the inhibition of the test compounds against the target enzyme, TF/FVIIa, an amidolytic assay based upon the absorbance of p-Nitroanalide (pNA) at OD405 was utilized. The IC50 of the test compounds was determined by using KC4A data reduction software (Bio-Tek Instruments) to interpolate percent inhibition from observed Vmax values.
TF/FVIIa assay reactions were performed in a 200 μL mixture containing 4 nM FVIIa, 10 nM lipidated tissue factor, in an assay buffer containing 100 mM Tris, pH 7.2, 150 mM NaCl, 5 mM calcium chloride, 0.1% bovine serum albumin (BSA), and 10% dimethyl sulfoxide (DMSO). TF and FVIIa were allowed to equilibrate at room temperature for 15 minutes. Test compounds dissolved in DMSO were incubated at varied concentrations with TF/FVIIa for 10 minutes, followed by addition of 500 µM substrate Spectrozyme-FVIIa. Reactions were incubated for 5 minutes at room temperature prior to measuring the change in OD405 run for 10 minutes at 21 second intervals with a Powerwave x (Bio-Tek Instruments) microplate reader.

Chain of TF/FVIIa (P08709 213-466 limits assumed): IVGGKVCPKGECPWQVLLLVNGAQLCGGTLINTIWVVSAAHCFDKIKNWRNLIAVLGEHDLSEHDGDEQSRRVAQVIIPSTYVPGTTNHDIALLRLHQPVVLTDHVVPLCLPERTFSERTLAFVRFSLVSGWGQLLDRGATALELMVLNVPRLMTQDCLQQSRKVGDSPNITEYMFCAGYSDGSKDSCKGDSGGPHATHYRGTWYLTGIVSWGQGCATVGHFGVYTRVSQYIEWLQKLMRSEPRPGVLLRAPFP
Chain of TF/FVIIa (P08709 61-212 limits assumed): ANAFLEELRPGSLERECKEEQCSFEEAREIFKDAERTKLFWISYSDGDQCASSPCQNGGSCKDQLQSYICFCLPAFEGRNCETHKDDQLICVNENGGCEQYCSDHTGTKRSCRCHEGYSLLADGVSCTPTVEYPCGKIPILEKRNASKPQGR
Chain of TF/FVIIa (P13726 33-295 partner): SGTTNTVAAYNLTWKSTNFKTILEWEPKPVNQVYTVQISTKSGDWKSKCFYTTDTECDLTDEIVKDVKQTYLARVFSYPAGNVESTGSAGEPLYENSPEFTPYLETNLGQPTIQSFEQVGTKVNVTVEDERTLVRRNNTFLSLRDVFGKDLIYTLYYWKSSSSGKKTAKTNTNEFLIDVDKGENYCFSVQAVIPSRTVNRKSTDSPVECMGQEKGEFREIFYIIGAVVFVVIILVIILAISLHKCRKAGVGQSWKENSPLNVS

Row | SMILES | pIC50 (human pancreatic trypsin) | pIC50 (human thrombin) | pIC50 (TF/FVIIa)
1 | CC(C)CNC(=O)c1ccc(-c2ccc(-c3ccncc3)cc2C(=O)Nc2ccc(C(=N)N)cc2)c(C(=O)O)c1 | < 6.00 | < 6.00 | < 7.00
2 | CC(C)CNC(=O)c1ccc(-c2ccc(-c3ccc(CO)s3)cc2C(=O)Nc2ccc(C(=N)N)cc2)c(C(=O)O)c1 | < 6.00 | < 6.00 | < 7.00
3 | CC(C)CNC(=O)c1ccc(-c2ccc(C#CC(C)(C)O)cc2C(=O)Nc2ccc(C(=N)N)cc2)c(C(=O)O)c1 | – | – | < 7.00
4 | C=Cc1ccc(-c2ccc(C(=O)NC(CCC)CCC)cc2C(=O)O)c(C(=O)Nc2ccc(C(=N)N)cc2)c1 | 6.00 to 7.00 | < 6.00 | > 7.00
5 | C=Cc1ccc(-c2ccc(C(=O)NCC(C)C)cc2C(=O)O)c(C(=O)Nc2ccc(C(=N)N)cc2)c1 | 6.00 to 7.00 | < 6.00 | > 7.00
6 | CC(C)CNC(=O)c1ccc(-c2cc(-c3cccs3)ccc2C(=O)Nc2ccc(C(=N)N)cc2)c(C(=O)O)c1 | – | – | < 7.00
7 | N=C(N)c1ccc(NC(=O)c2cc(-c3ccco3)ccc2-c2ccc(C(=O)NCCCCCC(=O)O)cc2C(=O)O)cc1 | 6.00 to 7.00 | < 6.00 | > 7.00
8 | CC(C)CNC(=O)c1ccc(-c2ccc(-c3nccs3)cc2C(=O)Nc2ccc(C(=N)N)cc2)c(C(=O)O)c1 | < 6.00 | < 6.00 | < 7.00
9 | C#CCNC(=O)c1ccc(-c2ccc(-c3ccco3)cc2C(=O)Nc2ccc(C(=N)N)cc2)c(C(=O)O)c1 | 6.00 to 7.00 | < 6.00 | > 7.00
10 | CC(C)CNC(=O)c1ccc(-c2cc(Oc3ccccc3)ccc2C(=O)Nc2ccc(C(=N)N)cc2)c(C(=O)O)c1 | – | – | < 6.00
